For 15 molecules, TGI and GI50 results are on record in PubChem BioAssay (NCI).

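Grown in 96-well plates, cells were treated for 48 hours with each compound at five concentrations. Insufficient inhibition: endpoint recorded as highest concentration tested. Here, GI50 denotes the concentration required for 50% inhibition of growth. Definition used: TGI = concentration required for complete inhibition of growth.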

Among the test systems are MOLT-4 leukemia; SNB-75 CNS; HCT-15 colon; UACC-62 melanoma; SK-MEL-2 melanoma; OVCAR-8 ovarian; SF-539 CNS; TK-10 renal; RPMI-8226 leukemia.
Holding throughout (experiment): growth of human tumour cells (NCI), 48 h

With `CCOC(=N)CC(=O)Nc1ccccc1CC`, the TGI in the experiment with MOLT-4 leukemia, in the experiment with SNB-75 CNS, with HCT-15 colon, with UACC-62 melanoma, in the experiment on SK-MEL-2 melanoma and in the experiment on OVCAR-8 ovarian was > 100 µM each time. In addition, the TGI with SF-539 CNS and in the experiment on TK-10 renal was > 100 µM each time.
`C[C@@H]1CC2(C[C@@H](C)C3[C@@H](CC4(C)CCCC5C6=CC(O)(CC[C@]34C)OC6=CC(=O)OC5(C)C)O2)OC1=O` (some centres undefined): the TGI with MOLT-4 leukemia, in the experiment with SNB-75 CNS, with HCT-15 colon, with UACC-62 melanoma, with RPMI-8226 leukemia and in the experiment with SK-MEL-2 melanoma was > 100 µM throughout. Further, the TGI in the experiment on SF-539 CNS and in the experiment with TK-10 renal was > 100 µM throughout.
In the case of `N.N.N.N.O=S([O-])[O-].[Co+3].[N-]=[N+]=[N-]`, the GI50 is > 100 µM in the experiment on MOLT-4 leukemia; 70.4 µM in the experiment with SNB-75 CNS; > 100 µM in the experiment with HCT-15 colon; > 100 µM in the experiment with UACC-62 melanoma; > 100 µM with RPMI-8226 leukemia; > 100 µM in the experiment with SK-MEL-2 melanoma. Besides, the GI50 with OVCAR-8 ovarian, in the experiment with SF-539 CNS and in the experiment on TK-10 renal was > 100 µM in each case. Also, the TGI in the experiment with MOLT-4 leukemia, with SNB-75 CNS, in the experiment on HCT-15 colon, in the experiment on UACC-62 melanoma, with RPMI-8226 leukemia and in the experiment on SK-MEL-2 melanoma was > 100 µM in each case. The TGI in the experiment with OVCAR-8 ovarian, in the experiment on SF-539 CNS and in the experiment on TK-10 renal was > 100 µM in each case.
As to `CC(NC1CCCC[C@@H]1O)c1ccccc1` (some centres undefined), the TGI in the experiment on MOLT-4 leukemia, in the experiment on SNB-75 CNS, in the experiment on HCT-15 colon, with UACC-62 melanoma, in the experiment with RPMI-8226 leukemia and in the experiment on SK-MEL-2 melanoma was > 100 µM in each case. The TGI in the experiment on OVCAR-8 ovarian and in the experiment on TK-10 renal was > 100 µM throughout.
In the case of `COC(=O)CCC(NC(=S)N/N=C(\C)c1cccs1)C(=O)OC` (centres undefined), the TGI with SNB-75 CNS, with HCT-15 colon, in the experiment on UACC-62 melanoma, in the experiment on SK-MEL-2 melanoma, with OVCAR-8 ovarian and in the experiment on SF-539 CNS was > 100 µM each time. The TGI in the experiment on TK-10 renal is > 100 µM.
`O=S1(=O)CCC2=CC(C(F)(F)F)=CC(C(F)(F)F)=CN21`: the TGI is 1.8 µM in the experiment on MOLT-4 leukemia; 4.39 µM in the experiment on SNB-75 CNS; 1.5 µM with HCT-15 colon; 3.69 µM with UACC-62 melanoma; 2.05 µM with RPMI-8226 leukemia; 4.1 µM in the experiment with SK-MEL-2 melanoma. Also, the TGI in the experiment with OVCAR-8 ovarian came to 2.25 µM; with SF-539 CNS it was 3.8 µM; with TK-10 renal, 2.13 µM.
As for `O=C(C#Cc1ccccc1)NC/C=C/c1ccccc1`, the TGI with MOLT-4 leukemia is > 100 µM; with SNB-75 CNS, 45.8 µM; with HCT-15 colon it was > 100 µM; in the experiment on UACC-62 melanoma it was > 100 µM; with SK-MEL-2 melanoma it was 97.4 µM; in the experiment with OVCAR-8 ovarian it was > 100 µM. Also, the TGI in the experiment on SF-539 CNS and in the experiment with TK-10 renal was > 100 µM in each case.
Consider `O=C1C(=O)N(c2cc(Cl)ccc2Cl)C(=O)C(=O)C1c1nc2ccccc2s1`, for which the TGI with SNB-75 CNS, in the experiment on HCT-15 colon, in the experiment with UACC-62 melanoma, in the experiment on RPMI-8226 leukemia, in the experiment on SK-MEL-2 melanoma and in the experiment with OVCAR-8 ovarian was > 100 µM throughout. In addition, the TGI in the experiment on SF-539 CNS and with TK-10 renal was > 100 µM each time.
`O=C1N=C2N=C(c3ccc(Cl)cc3)N(c3ccc(Cl)cc3)N2Sc2ccccc21`: the TGI with MOLT-4 leukemia, in the experiment with SNB-75 CNS, with HCT-15 colon, in the experiment with UACC-62 melanoma, in the experiment on RPMI-8226 leukemia and in the experiment on SK-MEL-2 melanoma was > 100 µM in each case. The TGI with OVCAR-8 ovarian, in the experiment on SF-539 CNS and with TK-10 renal was > 100 µM throughout.
Turning to `C[C@]12CC[C@H](OC(=O)Nc3ccccc3)CC1=CC[C@@H]1C2CC[C@]2(C)/C(=N/OC(=O)Nc3ccccc3)CCC12` (some centres undefined), the TGI is > 100 µM with MOLT-4 leukemia; > 100 µM with SNB-75 CNS; 3.31 µM in the experiment with HCT-15 colon; > 100 µM in the experiment with UACC-62 melanoma; > 100 µM in the experiment with RPMI-8226 leukemia; > 100 µM in the experiment on SK-MEL-2 melanoma. Further, the TGI with OVCAR-8 ovarian, in the experiment on SF-539 CNS and in the experiment on TK-10 renal was > 100 µM in each case.
For `O=C(Nc1ccccc1)N1C(c2ccccc2)=N[C@@H](c2ccccc2)[C@@H]1c1ccccc1`, the TGI worked out at 44.5 µM with MOLT-4 leukemia; 53.5 µM in the experiment on SNB-75 CNS; 60.4 µM in the experiment on HCT-15 colon; 34.7 µM with UACC-62 melanoma; 61.3 µM in the experiment with RPMI-8226 leukemia; 45.6 µM in the experiment with OVCAR-8 ovarian. Moreover, the TGI with SF-539 CNS amounted to 33.7 µM; in the experiment on TK-10 renal, 76.1 µM.
For the molecule `Cn1cnnc1Sc1c([N+](=O)[O-])nc(-c2ccc([N+](=O)[O-])cc2)n1C`, the TGI in the experiment on MOLT-4 leukemia amounted to 31.8 µM; with SNB-75 CNS it was 87.5 µM; in the experiment with UACC-62 melanoma, 30.4 µM; in the experiment with RPMI-8226 leukemia, 37.8 µM; in the experiment on SK-MEL-2 melanoma, 29.8 µM; with OVCAR-8 ovarian, 33 µM. In addition, the TGI with SF-539 CNS stood at 33.2 µM; in the experiment with TK-10 renal, 32.9 µM.
Regarding `COc1ccc(OCC(=O)O)c2c1CCC(C)C2=O` (centres undefined), the TGI with MOLT-4 leukemia, in the experiment with HCT-15 colon, in the experiment with UACC-62 melanoma, in the experiment on RPMI-8226 leukemia, in the experiment on SK-MEL-2 melanoma and in the experiment on OVCAR-8 ovarian was > 100 µM throughout. Besides, the TGI in the experiment with SF-539 CNS and in the experiment on TK-10 renal was > 100 µM in each case.
Consider `CN(C)C(=S)/N=c1\ssc(=Nc2ccccc2)n1-c1ccccc1`, for which the TGI is > 100 µM in the experiment on MOLT-4 leukemia; 36.5 µM in the experiment on SNB-75 CNS; > 100 µM with HCT-15 colon; > 100 µM in the experiment on SK-MEL-2 melanoma; 68.7 µM in the experiment on OVCAR-8 ovarian; 32 µM in the experiment on SF-539 CNS. In the experiment with TK-10 renal, this molecule had a TGI of 64.4 µM.
Turning to `Nc1ccc(C(=O)N/C(=C\c2ccc3c(c2)OCO3)c2nc3ccccc3s2)cc1`, the TGI with HCT-15 colon came out at 23.4 µM; in the experiment with UACC-62 melanoma, 33.2 µM; in the experiment with SK-MEL-2 melanoma, 28 µM; in the experiment with OVCAR-8 ovarian it was 28.9 µM; in the experiment on SF-539 CNS, 31.4 µM; with TK-10 renal it was 34 µM.
